Patent publication US20050131041A1, “Azole derivatives as antifungal agents” (priority 2002, published 2005)
In brackets after ≈: the same amount, converted by molar mass. Where two headings read alike, the source gives them in different places.

What was measured:
[1] = test system: Cryptococcus neoformans M 106; assay: MIC determination (NCCLS M27A/M38P broth dilution); assay type: cell-based
Candida krusei 6258 (QC) = assay: MIC determination (NCCLS M27A/M38P broth dilution); assay type: cell-based
[2] = test system: Paecilomyces variotti 22319(QC); assay: MIC determination (NCCLS M27A/M38P broth dilution); assay type: cell-based
Candida albicans 1122 = assay: MIC determination (NCCLS M27A/M38P broth dilution); assay type: cell-based
[3] = test system: Aspergillus fumigatus 1008; assay: MIC determination (NCCLS M27A/M38P broth dilution); assay type: cell-based
Candida krusei 766.1 = assay: MIC determination (NCCLS M27A/M38P broth dilution); assay type: cell-based
Candida glabrata 90030 = assay: MIC determination (NCCLS M27A/M38P broth dilution); assay type: cell-based
Candida tropicalis 750 = assay: MIC determination (NCCLS M27A/M38P broth dilution); assay type: cell-based
[4] = test system: Aspergillus fumigatus Si-I; assay: MIC determination (NCCLS M27A/M38P broth dilution); assay type: cell-based
Candida albicans Y-01-19 = assay: MIC determination (NCCLS M27A/M38P broth dilution); assay type: cell-based
[5] = test system: Candida parapsilosis 22019 (QC); assay: MIC determination (NCCLS M27A/M38P broth dilution); assay type: cell-based
Cryptococcus neoformans = conditions: cited from earlier work
ergosterol P450DM [6] = molecular target: ergosterol P450DM (Candida albicans, UniProt P10613); conditions: cited from earlier work
ergosterol P450DM (Candida albicans, UniProt P10613), sequence (P10613 whole entry): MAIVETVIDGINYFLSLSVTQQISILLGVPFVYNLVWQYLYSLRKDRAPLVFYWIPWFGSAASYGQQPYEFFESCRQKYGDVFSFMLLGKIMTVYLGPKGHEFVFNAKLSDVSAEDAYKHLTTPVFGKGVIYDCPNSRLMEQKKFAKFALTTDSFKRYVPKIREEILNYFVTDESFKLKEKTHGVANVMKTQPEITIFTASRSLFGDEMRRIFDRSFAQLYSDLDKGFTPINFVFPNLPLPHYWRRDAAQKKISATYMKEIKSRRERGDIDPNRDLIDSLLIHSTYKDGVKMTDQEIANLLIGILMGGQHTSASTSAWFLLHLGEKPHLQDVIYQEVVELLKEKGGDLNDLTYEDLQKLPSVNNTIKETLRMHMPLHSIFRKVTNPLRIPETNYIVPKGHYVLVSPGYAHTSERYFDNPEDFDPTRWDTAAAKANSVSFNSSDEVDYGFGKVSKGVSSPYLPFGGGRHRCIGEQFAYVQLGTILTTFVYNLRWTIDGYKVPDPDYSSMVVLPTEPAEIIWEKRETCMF

ergosterol P450DM [7] = conditions: cited from earlier work
[8] = Candida krusei 6258 (QC), RPMI 1640, MOPS pH 7
[9] = Paecilomyces variotti 22319(QC), RPMI 1640, MOPS pH 7
[10] = Aspergillus fumigatus 1008, RPMI 1640, MOPS pH 7
[11] = Aspergillus fumigatus Si-I, RPMI 1640, MOPS pH 7
[12] = M106, RPMI 1640, MOPS pH 7, read-out: MIC
[13] = Pichia kudriavzevii, Candida krusei 6258 (QC), RPMI 1640, MOPS pH 7, read-out: MIC
[14] = Paecilomyces variotti 22319(QC), RPMI 1640, MOPS pH 7, read-out: MIC
[15] = RPMI 1640, MOPS pH 7, read-out: MIC
[16] = Pichia kudriavzevii, RPMI 1640, MOPS pH 7, read-out: MIC
[17] = Nakaseomyces glabratus, RPMI 1640, MOPS pH 7, read-out: MIC
[18] = Y0119, RPMI 1640, MOPS pH 7, read-out: MIC
[19] = Aspergillus fumigatus 1008, RPMI 1640, MOPS pH 7, read-out: MIC

Structure (SMILES)	MIC ([1]; RPMI 1640, MOPS pH 7)	MIC (Candida krusei 6258 (QC); [8])	MIC [2, 9]	MIC (Candida albicans 1122; RPMI 1640, MOPS pH 7)	MIC [3, 10]	MIC (Candida krusei 766.1; RPMI 1640, MOPS pH 7)	MIC (Candida glabrata 90030; RPMI 1640, MOPS pH 7)	MIC (Candida tropicalis 750; RPMI 1640, MOPS pH 7)	MIC [4, 11]	MIC (Candida albicans Y-01-19; RPMI 1640, MOPS pH 7)	MIC ([5]; RPMI 1640, MOPS pH 7)	MIC [1, 12]	MIC (Candida albicans 1122; [15])	MIC (Candida krusei 766.1; [16])	MIC (Candida glabrata 90030; [17])	MIC (Candida tropicalis 750; [15])	MIC (Candida albicans Y-01-19; [18])	MIC [5, 15]	also measured
C[C@@H]1[C@H](O)[C@@H](C)/C=C/C=C/C=C/C=C/C=C/C=C/C=C/[C@H](O[C@@H]2O[C@H](C)[C@@H](O)[C@H](N)[C@@H]2O)C[C@@H]2O[C@](O)(C[C@@H](O)C[C@@H](O)[C@H](O)CC[C@@H](O)C[C@@H](O)CC(=O)O[C@H]1C)C[C@H](O)[C@H]2C(=O)O [AMB, AMPHOTERICIN B]	0.06 µg/mL (≈ 0.0649 µM)	0.25 µg/mL (≈ 0.271 µM)	0.25 µg/mL (≈ 0.271 µM)	0.25 µg/mL (≈ 0.271 µM)	0.25 µg/mL (≈ 0.271 µM)	0.25 µg/mL (≈ 0.271 µM)	0.5 µg/mL (≈ 0.541 µM)	0.125 µg/mL (≈ 0.135 µM)	0.5 µg/mL (≈ 0.541 µM)	0.25 µg/mL (≈ 0.271 µM)	0.125 µg/mL (≈ 0.135 µM)	–	–	–	–	–	–	–	–
CC[C@H](C)C[C@H](C)CCCCCCCCC(=O)N[C@H]1C[C@@H](O)[C@@H](NCCN)NC(=O)[C@@H]2[C@@H](O)CCN2C(=O)[C@H]([C@H](O)CCN)NC(=O)[C@H]([C@H](O)[C@@H](O)c2ccc(O)cc2)NC(=O)[C@@H]2C[C@@H](O)CN2C(=O)[C@H]([C@@H](C)O)NC1=O [caspofungin, Caspofungin]	–	–	–	–	–	–	–	–	–	–	–	–	–	–	–	–	–	–	activity against Cryptococcus neoformans (Cryptococcus neoformans): not active
OC(Cn1cncn1)(Cn1cncn1)c1ccc(F)cc1F [FLU, FLUCONAZOLE]	–	–	–	–	–	–	–	–	–	–	–	4 µg/mL (≈ 13.1 µM)	0.5 µg/mL (≈ 1.63 µM)	64 µg/mL (≈ 209 µM)	16 µg/mL (≈ 52.2 µM)	2 µg/mL (≈ 6.53 µM)	16 µg/mL (≈ 52.2 µM)	2 µg/mL (≈ 6.53 µM)	MIC (Candida krusei 6258 (QC); [13]): 32 µg/mL (≈ 104 µM); MIC [2, 14]: 2 µg/mL (≈ 6.53 µM); MIC ([3]; Aspergillus fumigatus, 1008, pH 7): > 128 µg/mL; MIC ([4]; Aspergillus fumigatus, pH 7): > 128 µg/mL
CCC(C)n1ncn(-c2ccc(N3CCN(c4ccc(OCC5COC(Cn6cncn6)(c6ccc(Cl)cc6Cl)O5)cc4)CC3)cc2)c1=O (centres unmarked) [ITRA, ITRACONAZOLE]	–	–	–	–	–	–	–	–	–	–	–	0.03 µg/mL (≈ 0.0425 µM)	0.016 µg/mL (≈ 0.0227 µM)	0.25 µg/mL (≈ 0.354 µM)	0.5 µg/mL (≈ 0.709 µM)	0.004 µg/mL (≈ 0.00567 µM)	0.25 µg/mL (≈ 0.354 µM)	0.03 µg/mL (≈ 0.0425 µM)	MIC (Candida krusei 6258 (QC); Pichia kudriavzevii, pH 7): 0.125 µg/mL (≈ 0.177 µM); MIC ([2]; Paecilomyces, pH 7): 0.125 µg/mL (≈ 0.177 µM); MIC [3, 19]: 0.25 µg/mL (≈ 0.354 µM); MIC ([4]; Aspergillus fumigatus, pH 7): 0.125 µg/mL (≈ 0.177 µM)
C[C@@H](c1ncncc1F)[C@](O)(Cn1cncn1)c1ccc(F)cc1F [VORI, VORICONAZOLE]	–	–	–	–	–	–	–	–	–	–	–	0.06 µg/mL (≈ 0.172 µM)	0.16 µg/mL (≈ 0.458 µM)	1 µg/mL (≈ 2.86 µM)	1 µg/mL (≈ 2.86 µM)	0.016 µg/mL (≈ 0.0458 µM)	0.5 µg/mL (≈ 1.43 µM)	0.03 µg/mL (≈ 0.0859 µM)	MIC (Candida krusei 6258 (QC); [13]): 0.25 µg/mL (≈ 0.716 µM); MIC [2, 14]: 0.06 µg/mL (≈ 0.172 µM); MIC [3, 19]: 0.25 µg/mL (≈ 0.716 µM); greater inhibition of ergosterol P450DM compared to fluconazole (ergosterol P450DM [6]): 1.6 fold; greater inhibition of ergosterol P450DM compared to fluconazole (ergosterol P450DM [7]): 160 fold; MIC ([4]; Aspergillus fumigatus Si-I, RPMI 1640, MOPS pH 7, read-out: MIC): 0.25 µg/mL (≈ 0.716 µM)

More lines, main results first:

MIC ([1]; RPMI 1640, MOPS pH 7)	MIC (Candida krusei 6258 (QC); [8])	MIC [2, 9]	MIC (Candida albicans 1122; RPMI 1640, MOPS pH 7)	MIC [3, 10]	MIC (Candida krusei 766.1; RPMI 1640, MOPS pH 7)	MIC (Candida glabrata 90030; RPMI 1640, MOPS pH 7)	MIC (Candida tropicalis 750; RPMI 1640, MOPS pH 7)	MIC [4, 11]	MIC (Candida albicans Y-01-19; RPMI 1640, MOPS pH 7)	MIC ([5]; RPMI 1640, MOPS pH 7)	Structure (SMILES)	MIC [1, 12]	MIC (Candida albicans 1122; [15])	MIC (Candida krusei 766.1; [16])	MIC (Candida glabrata 90030; [17])	MIC (Candida tropicalis 750; [15])	MIC (Candida albicans Y-01-19; [18])	MIC [5, 15]	also measured
<0.00025 µg/mL	0.06 µg/mL (≈ 0.121 µM)	Long trailing effect	<0.00025 µg/mL	0.125 µg/mL (≈ 0.252 µM)	0.5 µg/mL (≈ 1.01 µM)	1 µg/mL (≈ 2.02 µM)	<0.00025 µg/mL	0.016 µg/mL (≈ 0.0323 µM)	0.5 µg/mL (≈ 1.01 µM)	<0.00025 µg/mL	C[C@@H](n1ccn(-c2ccc(-n3ncnn3)cc2)c1=S)[C@](O)(Cn1cncn1)c1ccc(F)cc1F [compound 5, 1-[(1R,2R)-2-(2,4-Difluorophenyl)-2-hydroxy-1-methyl-3-(1H-1,2,4-triazol-1-yl)propyl]-3-[4-(2H-2-tetrazolyl)phenyl]-2-(1H,3H)-thioimidazolone]	–	–	–	–	–	–	–	–
0.03 µg/mL (≈ 0.0605 µM)	0.25 µg/mL (≈ 0.505 µM)	0.016 µg/mL (≈ 0.0323 µM)	0.06 µg/mL (≈ 0.121 µM)	0.25 µg/mL (≈ 0.505 µM)	0.25 µg/mL (≈ 0.505 µM)	0.06 µg/mL (≈ 0.121 µM)	0.004 µg/mL (≈ 0.00807 µM)	0.25 µg/mL (≈ 0.505 µM)	0.25 µg/mL (≈ 0.505 µM)	<0.00025 µg/mL	C[C@@H](n1ccn(-c2ccc(-n3cnnn3)cc2)c1=S)[C@](O)(Cn1cncn1)c1ccc(F)cc1F [compound 4, 1-[(1R,2R)-2-(2,4-Difluorophenyl)-2-hydroxy-1-methyl-3-(1H-1,2,4-triazol-1-yl)propyl]-3-[4-(1H-1-tetrazolyl)phenyl]-2-(1H,3H)-thioimidazolone]	–	–	–	–	–	–	–	–
<0.00025 µg/mL	0.125 µg/mL (≈ 0.224 µM)	Long trailing effect	<0.00025 µg/mL	0.125 µg/mL (≈ 0.224 µM)	0.5 µg/mL (≈ 0.897 µM)	2 µg/mL (≈ 3.59 µM)	<0.00025 µg/mL	0.016 µg/mL (≈ 0.0287 µM)	0.5 µg/mL (≈ 0.897 µM)	<0.00025 µg/mL	C[C@@H](n1ccn(-c2ccc(OCC(F)(F)C(F)F)cc2)c1=S)[C@](O)(Cn1cncn1)c1ccc(F)cc1F [compound 6, 1-[(1R,2R)-2-(2,4-Difluorophenyl)-2-hydroxy-1-methyl-3-(1H-1,2,4-triazol-1-yl)propyl]-3-[4-(2,2,3,3-tetrafluoropropoxy)phenyl]-2-(1H,3H)-thioimidazolone]	–	–	–	–	–	–	–	–
